± gives the expanded uncertainty stated by the source. Values belong to the compound of their own block, whether it stands above or below them.
Settings: Liquid

Compound: Cc1cccc(C)c1 [1,3-dimethylbenzene]
- vapor or sublimation pressure (412 K, Ebulliometric method (Recirculating still)): 101.3 ± 1 kPa

Compound: Cc1ccc(C)cc1 [1,4-dimethylbenzene]
- vapor or sublimation pressure (411.4 K, Ebulliometric method (Recirculating still)): 101.3 ± 1 kPa

Compound: Cc1ccccc1 [toluene]
- vapor or sublimation pressure (383.4 K, Closed cell (Static) method): 101.3 ± 1 kPa
- vapor or sublimation pressure (383.8 K, Closed cell (Static) method): 101.3 ± 1 kPa

More lines, now with the values ahead:

- vapor or sublimation pressure (353.7 K, Ebulliometric method (Recirculating still)): 101.3 ± 1 kPa
Compound: C1CCCCC1 [cyclohexane]

- vapor or sublimation pressure (353.3 K, Closed cell (Static) method): 101.3 ± 1 kPa
Compound: c1ccccc1 [benzene]

- vapor or sublimation pressure (423.8 K, Ebulliometric method (Recirculating still)): 101.3 ± 1 kPa
Compound: CCCCCCCCC [nonane]
